Experimental data published in paper PMC13083723 (Patterns, 2026).
Like-named read-outs stand apart in the source and are kept apart here.

Experiments:
[1] = test system: Vero-E6 cells; test: cells; format: cell-based
[2] = test system: SARS-CoV-2; details: cited from earlier work; for Vero-E6 CPE inhibition %: 10 µM
[3] = test system: SARS-CoV-2; details: cited from earlier work; for CaCo2 CPE inhibition %: Caco-2, 20 µM
[4] = Chlorocebus sabaeus, Vero C1008, 24 h; read-out: PLD Effect in % 5 µM
[5] = Chlorocebus sabaeus, Vero C1008, 24 h; read-out: PLD Effect in % 10 µM
[6] = Chlorocebus sabaeus, Vero C1008, 24 h; read-out: PLD Effect in % 20 µM
[7] = Chlorocebus sabaeus, Vero C1008, read-out: PLD EC50 µM
[8] = Chlorocebus sabaeus, Vero C1008; read-out: PLD EC50

Row | Structure (SMILES) | PLD Effect in % 5 µM ([1]; 5 µM) | PLD Effect in % 10 µM ([1]; 10 µM) | PLD Effect in % 20 µM ([1]; 20 µM) | Vero-E6 CPE inhibition % [2] | CaCo2 CPE inhibition % [3] | activation at 5 µM [1, 4] [%] | activation at 10 µM [1, 5] [%] | activation at 20 µM [1, 6] [%] | activation at 5 µM ([1]; Chlorocebus sabaeus, Vero C1008, 24 h, read-out: PLD Effect in % 5 µM) [%] | activation at 10 µM ([1]; Chlorocebus sabaeus, Vero C1008, 24 h, read-out: PLD Effect in % 10 µM) [%] | activation at 20 µM ([1]; Chlorocebus sabaeus, Vero C1008, 24 h, read-out: PLD Effect in % 20 µM) [%] | EC50 [1, 7] [µM] | EC50 [1, 8] [µM] | EC50 ([1]; read-out: PLD EC50) [µM] | PLD EC50 µM [1] | Vero-E6 EC50 µM [2] | CaCo2 EC50 µM [3]
1 | O=C1Nc2ccc(Cl)c3c2C1(CCCCN1CC=C(c2ccc(Cl)cc2)CC1)CCC3 (stereo not drawn) [DR-4485, reference compound] | 94.34% | 201.85% | -16.80% | -0.26% | 82.83% |  |  |  |  |  |  |  |  |  |  |  | 
2 | CCOc1cc2ncc(C#N)c(Nc3ccc(F)c(Cl)c3)c2cc1NC(=O)/C=C/CN(C)C [Pelitinib (EKB-569), Pelitinib, reference compound] |  |  |  | -0.31 | 83.39% | 76.1 | 85.5 | 101 |  |  |  |  |  |  |  |  | 
3 | COC(=O)C1=C(C)NC(C)=C(C(=O)OCCCN2CCC(c3ccccc3)(c3ccccc3)CC2)[C@@H]1c1cccc([N+](=O)[O-])c1 [Dexniguldipine, reference compound] |  |  |  | -0.15% | 97.57% |  |  |  | 83.1 | 115 | 127 | 2.48 |  |  |  |  | 
4 | O=C(c1ccc(F)c(F)c1Nc1ccc(I)cc1F)N1CC(O)([C@@H]2CCCCN2)C1 [Cobimetinib, reference compound] |  |  |  | -0.31% | 61.58% | 112 | 135 | 133 |  |  |  | 1.34 |  |  |  |  | 
5 | Cc1ccc(C(=O)N(CCCN)[C@@H](c2nc3cc(Cl)ccc3c(=O)n2Cc2ccccc2)C(C)C)cc1 [ispinesib (SB-715992), ispinesib, reference compound] |  |  |  | -0.29 | 91.86% | 207 | 205 | -43.2 |  |  |  |  | 1.81 |  |  |  | 
6 | O=C(Nc1ccc(CN2CCOCC2)cc1)c1ccc(-c2cccc(Cl)c2)o1 [CID-2011756, reference compound] | 27.66% | 31.32% | 55.98% | 0.15 | 96.96% |  |  |  |  |  |  |  |  | > 20 |  |  | 
7 | CN(C)CCNc1nc2cc(O)ccc2c2c1C(=O)c1ccccc1-2 [TAS-103, reference compound] | 135.39% | 172.31% | 121.21% | -0.08% | 92.56% |  |  |  |  |  |  |  |  | 2.29 |  |  | 
8 | CSc1ccccc1Nc1nc(N2CCNCC2)nc2c(NCC3CC3)ncnc12 [KHK-IN-1, reference compound] | toxic | toxic | toxic | toxic | toxic |  |  |  |  |  |  |  |  |  | toxic | toxic | toxic
9 | CCOc1cc(C(C)(C)C)ccc1C1=N[C@@](C)(c2ccc(Cl)cc2)[C@@](C)(c2ccc(Cl)cc2)N1C(=O)N1CCN(CCCS(C)(=O)=O)CC1 [RG7112 (RO50455337), reference compound] |  |  |  | 6.32 | 88.52% | 109 | 141 | 88.5 |  |  |  |  | 2.56 |  |  |  | 
